Nine compounds from patent US8895571B2, “Isoindolinone and pyrrolopyridinone derivatives as Akt inhibitors” (Incyte Corporation, priority 2011, dated 2014) can be followed below.

One test deals with T1, Full length PKA (Homo sapiens, UniProt P17612).
T1 construct: Full length PKA (cat #P2912); purchased Invitrogen P2912
Kind of test: PKA in vitro enzymatic assay (HTRF). Format: biochemical. To be noted: 0.035 nM enzyme solution, substrate solution with 5 mM ATP, 25° C. 1 hr. The method, boiled down: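 IC50 came from curve fitting of percent inhibition across an 11-point, 3-fold compound series, with HTRF read after EDTA quench and Tb-labelled p-S133 antibody detection. Enzyme (0.035 nM solution) and substrate (0.1 μM fluorescein-CREBtide solution containing 5 mM ATP) reacted for 1 h at 25°C. The buffer was HEPES 50 mM pH 7.8 with 10 mM MgCl2, 5 mM DTT and 0.005% Tween20.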
(In TR-FRET formats the signal depends on donor and acceptor labels being close together.)

In a further test the target is T2, Full length Akt1 (Homo sapiens, UniProt P31749).
T2 construct: Full length Akt1 (cat #P2999); purchased PerkinElmer P2999
T2 sequence (P31749 whole entry): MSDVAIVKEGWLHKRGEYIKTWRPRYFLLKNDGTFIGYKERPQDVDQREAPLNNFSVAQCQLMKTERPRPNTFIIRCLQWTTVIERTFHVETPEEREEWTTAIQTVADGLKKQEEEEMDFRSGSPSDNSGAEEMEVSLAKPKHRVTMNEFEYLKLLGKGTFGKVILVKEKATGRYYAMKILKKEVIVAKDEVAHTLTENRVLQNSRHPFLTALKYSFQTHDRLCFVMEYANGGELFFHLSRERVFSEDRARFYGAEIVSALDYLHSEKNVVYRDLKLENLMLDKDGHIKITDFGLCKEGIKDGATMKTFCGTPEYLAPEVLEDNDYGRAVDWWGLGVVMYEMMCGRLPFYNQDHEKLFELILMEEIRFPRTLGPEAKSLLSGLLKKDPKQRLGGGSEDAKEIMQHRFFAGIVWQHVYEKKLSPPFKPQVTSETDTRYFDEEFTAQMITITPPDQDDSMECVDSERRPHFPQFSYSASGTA
Kind of test: In vitro Akt kinase enzymatic assay (HTRF), Akt1. It is filed as biochemical. To be noted: 0.4 nM Akt1, substrate solution with 5 mM ATP, 25° C. 1 hr. The method, boiled down:
(§1)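 Full-length enzyme (0.4 nM Akt1 or 0.6 nM Akt2/Akt3 in the enzyme solution) was combined with a substrate solution of 0.1 μM ULight-Crosstide plus 5 mM ATP in pH 7.8 HEPES/MgCl2/DTT/Tween20 buffer and reacted 1 hr at 25° C. The EDTA stop contained Eu anti-phospho-Crosstide; IC50 was fitted from 11-point HTRF inhibition curves.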

The next test deals with T3, Full length Akt2 (Homo sapiens, UniProt P31751).
T3 construct: Full length Akt1 (cat #P2999), Akt2 (cat #PV3184); purchased PerkinElmer PV3184
T3 sequence (P31751 whole entry): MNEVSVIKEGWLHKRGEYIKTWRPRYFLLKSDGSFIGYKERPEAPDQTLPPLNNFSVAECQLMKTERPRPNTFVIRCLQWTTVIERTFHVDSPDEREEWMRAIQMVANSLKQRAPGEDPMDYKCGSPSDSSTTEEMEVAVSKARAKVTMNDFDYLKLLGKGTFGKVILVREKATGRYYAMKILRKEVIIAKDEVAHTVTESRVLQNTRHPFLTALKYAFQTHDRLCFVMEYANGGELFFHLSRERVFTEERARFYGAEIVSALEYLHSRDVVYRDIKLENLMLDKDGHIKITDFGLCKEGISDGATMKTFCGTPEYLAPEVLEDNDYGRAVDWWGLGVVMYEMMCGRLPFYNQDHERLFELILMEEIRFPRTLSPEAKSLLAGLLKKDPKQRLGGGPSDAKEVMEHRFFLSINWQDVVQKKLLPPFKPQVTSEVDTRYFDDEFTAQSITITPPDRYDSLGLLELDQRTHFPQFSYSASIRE
Kind of test: In vitro Akt kinase enzymatic assay (HTRF), Akt2. Format: biochemical. To be noted: 0.6 nM Akt2, substrate solution with 5 mM ATP, 25° C. 1 hr. The method, boiled down: as §1

The target in another test is T4, Full length Akt3 (Homo sapiens, UniProt Q9Y243).
T4 construct: Full length Akt1 (cat #P2999), Akt2 (cat #PV3184), Akt3 (cat #PV3185); purchased PerkinElmer PV3185
T4 sequence (Q9Y243 whole entry): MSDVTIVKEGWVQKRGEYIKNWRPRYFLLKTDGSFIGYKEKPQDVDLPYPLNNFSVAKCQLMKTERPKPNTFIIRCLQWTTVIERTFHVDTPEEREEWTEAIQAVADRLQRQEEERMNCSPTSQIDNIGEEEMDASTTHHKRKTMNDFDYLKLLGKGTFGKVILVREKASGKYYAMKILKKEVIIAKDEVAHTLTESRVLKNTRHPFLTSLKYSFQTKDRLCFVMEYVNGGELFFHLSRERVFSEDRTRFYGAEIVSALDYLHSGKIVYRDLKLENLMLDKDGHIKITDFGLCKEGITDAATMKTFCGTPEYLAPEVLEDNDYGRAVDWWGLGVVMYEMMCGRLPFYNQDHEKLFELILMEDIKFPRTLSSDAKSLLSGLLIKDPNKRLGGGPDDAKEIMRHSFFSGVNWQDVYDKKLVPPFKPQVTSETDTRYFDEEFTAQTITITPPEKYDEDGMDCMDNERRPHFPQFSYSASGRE
The test is described as follows: In vitro Akt kinase enzymatic assay (HTRF), Akt3. It is filed as biochemical. To be noted: 0.6 nM Akt3, substrate solution with 5 mM ATP, 25° C. 1 hr. The method, boiled down: as §1

Test [1] relates to LNCaP cells (human prostate tumor cell line). The test is described as follows: Akt LNCaP proliferation assay (MTS). It is filed as cell-based. To be noted: 48 hours. How it is done:
LNCaP cells (human prostate tumor cell line) were plated in 96 well plates (COSTAR, Corning, N.Y.) in 50 μL at 10,000 cells/well in RPMI (Media Tech, Manassas, Va.), 2% fetal bovine serum (Hyclone/Thermo, Logan, Utah) and incubated overnight at 37° C., 5% CO2. […] of compound solution were added at final concentrations of 1000 nM to 0.5 nM in 3 fold dilutions for IC50 determination and plates further incubated for 48 hours. 100 μL of Cell Titer 96® Aqueous reagent, from an MTS colorimetric method for determining the number of viable cells in proliferation (Cell titer 96, Promega, Madison, Wis.) was added for 2 hours at 37° C., 5% CO2. Each plate was mixed well and read on a SpectroMax M5 automated plate reader (Molecular Devices, Sunnyvale Calif.). The ability of the compound to inhibit proliferation was reported as the inhibitor concentration required for 50% inhibition (IC50 values) of total cell proliferation. See Table 8 for data related to compounds of the examples.

[2] abbreviates: given as a bound, final concentrations 1000 nM to 0.5 nM.
Where [3] appears, read: 2% fetal bovine serum, class symbols.

In the case of `Cn1nccc1-c1ccc2c(c1)CN([C@H](CN)Cc1cccc(-c3ccncc3)c1)C2=O` [Example 85, 2-[(1S)-2-amino-1-(3-pyridin-4-ylbenzyl)ethyl]-5-(1-methyl-1H-pyrazol-5-yl)isoindolin-1-one], the IC50 is over 5000 nM against Full length PKA; over 5000 nM against Full length Akt1; over 5000 nM at Full length Akt2; over 5000 nM at Full length Akt3; over 1000 nM in test [1] (setting [2]).
On to `CC(C)OCc1cnn(C)c1-c1cc2c(cn1)C(=O)N([C@H](CN)Cc1cccc(F)c1)C2` [Example 95, 2-[(1S)-2-amino-1-(3-fluorobenzyl)ethyl]-6-[4-(2-propoxymethyl)-1-methyl-1H-pyrazol-5-yl]-1,2-dihydro-3H-pyrrolo[3,4-c]pyridin-3-one], for which the concentration for half-maximal inhibition (IC50) was over 5000 nM at Full length PKA; under 500 nM against Full length Akt1; under 500 nM against Full length Akt2; under 500 nM against Full length Akt3; under 500 nM in test [1] (setting [3]).
On to `Cn1ncc(Cl)c1-c1ccc2c(c1)CN([C@H](CN)Cc1cccnc1)C2=O` [Example 65, 2-[(1S)-2-amino-1-(pyridin-3-ylmethyl)ethyl]-5-(4-chloro-1-methyl-1H-pyrazol-5-yl)isoindolin-1-one], for which the half-maximal inhibitory concentration (IC50) against Full length PKA is over 5000 nM; against Full length Akt1, under 500 nM; against Full length Akt2, under 500 nM; at Full length Akt3 it was under 500 nM; in test [1] (setting [3]), under 500 nM.
Regarding `Cn1nccc1-c1ccc2c(c1)CN([C@H](CN)CC1CCCCC1)C2=O` [Example 131, 2-[(1S)-2-amino-1-(cyclohexylmethyl)ethyl]-5-(1-methyl-1H-pyrazol-5-yl)isoindolin-1-one], the IC50 was 500 to 5000 nM against Full length PKA; under 500 nM against Full length Akt1; under 500 nM against Full length Akt2; under 500 nM on Full length Akt3; under 500 nM in test [1] (setting [3]).
Take `Cn1ncc(Br)c1-c1cc2c(cn1)C(=O)N([C@H](CN)Cc1cc(F)cc(F)c1)C2` [Example 104, 2-[(1S)-2-amino-1-(3,5-difluoro-benzyl)ethyl]-6-(4-broro-1-methyl-1H-pyrazol-5-yl)-1,2-dihydro-3H-pyrrolo[3,4-c]pyridin-3-one]: the concentration for half-maximal inhibition (IC50) at Full length PKA was 500 to 5000 nM; at Full length Akt1 it was under 500 nM; on Full length Akt2, under 500 nM; on Full length Akt3, under 500 nM; in test [1] (setting [3]) it was under 500 nM.
For `Cc1cnn(C)c1-c1ccc2c(c1)CN([C@H](CN)Cc1cc(F)cc(F)c1)C2=O` [Example 42, 2-[(1S)-2-amino-1-(3,5-difluorobenzyl)ethyl]-5-(4-methyl-1-methyl-1H-pyrazol-5-yl)isoindolin-1-one], the half-inhibitory concentration (IC50) was 500 to 5000 nM on Full length PKA; under 500 nM on Full length Akt1; under 500 nM on Full length Akt2; under 500 nM against Full length Akt3; under 500 nM in test [1] (setting [3]).
As to `Cn1nccc1-c1ccc2c(c1)CN([C@H](CN)Cc1cccc(-c3cncnc3)c1)C2=O` [Example 87, 2-[(1S)-2-amino-1-(3-pyrimidin-5-ylbenzyl)ethyl]-5-(1-methyl-1H-pyrazol-5-yl)isoindolin-1-one], the IC50 against Full length PKA is over 5000 nM; on Full length Akt1, 500 to 5000 nM; at Full length Akt2 it was over 5000 nM; on Full length Akt3 it was over 5000 nM; in test [1] (setting [2]), over 1000 nM.
With `CC(C)OCc1cnn(C)c1-c1ccc2c(c1)CN([C@H](CN)Cc1cc(F)cc(F)c1)C2=O` [Example 45, 2-[(1S)-2-amino-1-(3,5-difluorobenzyl)ethyl]-5-[4-(2-propoxymethyl)-1-methyl-1H-pyrazol-5-yl]isoindolin-1-one], the IC50 against Full length PKA was 500 to 5000 nM; against Full length Akt1, under 500 nM; against Full length Akt2, under 500 nM; at Full length Akt3, under 500 nM; in test [1] (setting [3]) it was under 500 nM.
In the case of `Cn1ncc(Br)c1-c1cnc2c(c1)CN([C@H](CN)Cc1cccc(F)c1)C2=O` [Example 91, 6-[(1S)-2-amino-1-(3-fluorobenzyl)ethyl]-3-(4-bromo-1-methyl-1H-pyrazol-5-yl)-5,6-dihydro-7H-pyrrolo[3,4-b]pyridin-7-one], the IC50 was over 5000 nM against Full length PKA; under 500 nM against Full length Akt1; under 500 nM against Full length Akt2; under 500 nM at Full length Akt3; under 500 nM in test [1] (setting [3]).

The term IC50 denotes the midpoint of a concentration-inhibition curve. Low values mean greater potency, high ones weaker potency.
